Data as given in patent publication US20190134120A1, “METHODS FOR THE TREATMENT OF BLADDER CANCER” (Viralytics Limited, priority 2013, published 2019).
Like-named read-outs stand apart in the source and are kept apart here.

How the values were obtained:
VMCUB-1 cells = test: CVA21 cytotoxicity, VMCUB-1 cells; assay type: cell-based, Human; settings: FIG. 2b
[1] = tested on: bladder cancer cell lines; test: Combination of CVA21 and chemotherapy on cell proliferation, combination index (CalcuSyn); assay type: cell-based, Human; settings: for combination index values: fixed ratio design
Method: FIG. 2 c): The effect of the combination of CVA21 and chemotherapy on cell proliferation was assessed by calculating combination index (CI) values using CalcuSyn software (Biosoft).
Combining CVA21 with the chemotherapy agents Mitomycin C and Gemcitabine has shown surprising synergy. […] Preliminary data using the same method has found from the 50% to the 75% effect levels, combination index values of 0.69-0.83 with Gemcitabine (FIG. 2b). In brief, 5637/T24/TCCSUP-1 cells were plated at 1×10^4 cells per well (100 μL) of a 96 well tray and incubated at 37° C. for 24 hrs. Mitomycin C was diluted in 10% FCS medium in doubling dilutions from between 2.8 to 0.02 ug/ml for 5637 cells and between 3.36 to 0.03 ug/ml for T24 cells. CVA21 was then diluted between MOI 25-0.196 in doubling dilutions using each dilution of Mitomycin C. The cells were then treated with each dilution of CVA21/Mitomycin C and incubated for 72 hrs. The medium was removed and 100 μl of diluted MTS reagent (Promega) was added. The plates were then incubated for 1-4 hrs and absorbance read at 492 nm.

bladder cell line T24 = test: Synergy between MMC and CVA21, dose matrix, T24 cells; assay type: cell-based, Human; settings: CVA21 (0-50 TCID50/cell) with MMC (0-3.36 ug/ml), at low mitomycin concentrations, especially below 0.2 ug/ml
Method: (§1) In brief, 5637/T24/TCCSUP-1 cells were plated at 1×10^4 cells per well (100 μL) of a 96 well tray and incubated at 37° C. for 24 hrs. Mitomycin C was diluted in 10% FCS medium in doubling dilutions from between 2.8 to 0.02 ug/ml for 5637 cells and between 3.36 to 0.03 ug/ml for T24 cells. CVA21 was then diluted between MOI 25-0.196 in doubling dilutions using each dilution of Mitomycin C. The cells were then treated with each dilution of CVA21/Mitomycin C and incubated for 72 hrs. The medium was removed and 100 μl of diluted MTS reagent (Promega) was added. The plates were then incubated for 1-4 hrs and absorbance read at 492 nm.

[2] = tested on: bladder cancer cell line 5637; test: Synergy between CVA21 and MMC, dose matrix, 5637 cells; assay type: cell-based, Human; settings: MMC 0 to 2.8 ug/ml
Method: as §1

[3] = tested on: human bladder tumor tissue; test: Ex vivo infection of human bladder tumour tissue by CVA21 (immunostaining); settings: 3.875x10^6 TCID50 CVA21; 48 hours post infection
Method: Primary bladder cancer tissue was received from the operating theatre of the Royal Surrey County Hospital UK in a dry pot. The tissue was cut into small pieces of between 2-4 mm and placed in 0.5 ml 10% FCS/DMEM with Pen/Strep and GLUT containing 3.875×10^6 TCID50 of CVA21. The infected tissue was incubated at 37° C., 5% CO2 for 48 hrs. Tissue was then fixed in 10% neutral buffered formalin for 18-24 hours.
Tissue pieces originating from the same human bladder tumour were either infected with CVA21 or left uninfected. Immunofluorescence and immunostaining for coxsackievirus was performed 48 hours post infection.
In brief, bladder cancer tissue was fixed using 10% neutral buffered formalin for 18-24 hours. After fixation, the tissue block was embedded in paraffin, and 4 μm sections cut and affixed onto slides. The sections were dried overnight at 37° C., deparaffinized, and rehydrated. Endogenous peroxidase was blocked using methanol/0.3% H202 for 20 min. The sections were then subjected to heat mediated antigen retrieval in a microwave using citrate buffer (10 mM, pH 6.0). Following washing, the slides were blocked with 2.5% horse serum and endogenous biotin blocked using an Avidin/Biotin blocking kit (SP-2001, VectorLabs) according to the manufacturer's instructions. […]

[4] = tested on: Patient derived bladder tumour cell line; test: Infection of patient derived primary bladder tumour cells with CVA21; assay type: cell-based, Human; settings: varying MOIs; 72 hours; MTS
Method: (§2) Human cancer bladder tissue was disaggregated and primary tumour cells were isolated. These were tested for bladder tumour markers (Cytokeratin 7) (data not shown). Primary tumour cells were infected at varying MOIs and incubated at 37 C for 72 hours then photographed and analysed by MTS ([3-(4,5-dimethylthiazol-2-yl)-5-(3-carboxymethoxyphenyl)-2-(4-sulfophenyl)-2H-tetrazolium, inner salt) assay. (A) CVA21 MOI 3. (B) Uninfected cells. (C) MTS assay. (D) CVA21 (3×10^6 TCID50) was incubated at 37 C for one hour in healthy donor urine. Resulting virus was titrated by TCID50 on SK-MEL-28 cells for 5 days.

[5] = assay type: physicochemical, Human; settings: 3x10^6 TCID50; 37 C for one hour in healthy donor urine
Method: as §2
In brief, SK-MEL-28 cells were plated at 1×10^4 cells per well (100 μL) of a 96 well tray in 10% DMEM and incubate at 37° C. o/n. 37.5 ul of stock CVA21 virus (7.75e7 TCID50/ml) was added 462.5 ul of normal health urine or Hanks or PBS or HANKS for 1 hrs at 37° C. After which urine/CVA21 was serially diluted 1:10 in 2% DMEM. The media was removed from the cells and 100 ul of each dilution was added to one of ten wells. The assay was then incubated at 37° C. for 5 days, after which the media was removed from the cells and 100 ul of 0.1% Glutaldehyde (Sigma) in PBS was added. […]. TCID50 is calculated by the Spearman & Kärber algorithm as described in Hierholzer & Killington (1996), Virology Methods Manual, p. […]

[6] = tested on: late stage melanoma patients; settings: Phase I, intratumorally administered, cited from earlier work
[7] = tested on: late stage melanoma patients; settings: Phase II, intralesional treatment, cited from earlier work

Which results are given for Coxsackievirus A21 [CVA21]?
susceptibility of cell line to CVA21 (VMCUB-1 cells): resistant; synergy with sequential dosing ([1]; CVA21 administered 4 hours after MMC, compared with concomitant dosing): synergy is well maintained; combination index values ([1]; CVA21 with Gemcitabine, from the 50% to the 75% effect levels, preliminary data): 0.69-0.83; combination index values ([1]; CVA21 with Mitomycin C, from the 50% to the 90% effect levels): 0.40-0.55; CI values (bladder cell line T24): < 1; interaction of CVA21 with MMC [2]: Synergy; infectability of ex-vivo tumour tissue [3]: highly infectable; infectability of primary tumour cells [4]: highly infectable; stability in human urine [5]: stable; tolerability ([6]; humans): well tolerated; patients with stabilization or reduction in injected tumour volumes ([6]; late stage melanoma): 55.55%; tolerability [7]: generally being well-tolerated; clinical activity ([7]; late stage melanoma): activity in both injected lesions and non-injected distant lesions
